# Patent publication US20210255193A1, “LYSINE REACTIVE PROBES AND USES THEREOF” (The Scripps Research Institute, priority 2017, published 2021)
# Assays:
# Experiment in all cases: competitive isoTOP-ABPP
# Format in all cases: binding
# [1] = target: T1, PFKL 6-phosphofructokinase, liver type (Homo sapiens, UniProt P17858); details: for isoTOP-ABPP ratio, lysine P17858_K677: possible other lysine P17858_K681; for isoTOP-ABPP ratio, lysine P17858_K715: possible other lysine P17858_K714; for isoTOP-ABPP ratio (R) at liganded lysine P17858_K315 / isoTOP-ABPP ratio (R) at liganded lysine P17858_K677 / isoTOP-ABPP ratio (R) at liganded lysine P17858_K715: sol, 231
# T1 construct: isoTOP-ABPP experiments performed in cell lysates (in vitro); endogenous in cells; host or cells: soluble proteome of human cancer cell lines (MDA-MB-231; Ramos and Jurkat also prepared)
# T1 sequence (P17858 1-780): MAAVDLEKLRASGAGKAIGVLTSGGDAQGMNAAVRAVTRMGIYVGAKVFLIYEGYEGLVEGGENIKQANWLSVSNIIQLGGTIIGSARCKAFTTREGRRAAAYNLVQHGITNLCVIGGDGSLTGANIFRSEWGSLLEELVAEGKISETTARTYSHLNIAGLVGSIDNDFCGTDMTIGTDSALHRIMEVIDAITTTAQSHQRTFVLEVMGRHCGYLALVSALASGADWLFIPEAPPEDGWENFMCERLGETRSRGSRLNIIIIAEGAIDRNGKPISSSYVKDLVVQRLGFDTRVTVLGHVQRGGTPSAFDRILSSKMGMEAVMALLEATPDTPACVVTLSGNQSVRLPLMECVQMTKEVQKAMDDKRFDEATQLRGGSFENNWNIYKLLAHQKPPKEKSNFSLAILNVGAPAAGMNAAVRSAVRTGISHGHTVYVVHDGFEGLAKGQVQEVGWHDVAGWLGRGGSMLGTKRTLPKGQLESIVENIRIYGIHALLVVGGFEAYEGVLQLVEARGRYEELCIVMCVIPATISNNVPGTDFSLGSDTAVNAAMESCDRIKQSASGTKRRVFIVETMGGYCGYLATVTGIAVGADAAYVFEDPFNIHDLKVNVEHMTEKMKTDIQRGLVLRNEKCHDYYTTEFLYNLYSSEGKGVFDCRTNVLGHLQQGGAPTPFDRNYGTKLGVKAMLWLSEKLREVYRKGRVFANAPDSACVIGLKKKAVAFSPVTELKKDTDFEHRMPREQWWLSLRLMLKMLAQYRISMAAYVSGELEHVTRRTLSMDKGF
# In short: (§1)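 Readout: isotopic light/heavy MS1 peak-area ratio (R, DMSO heavy over compound light), median across peptides sharing a modified lysine. Lysate received fragment (activated esters 50 μM, guanidinylating agents 100 μM final) or DMSO, then 0.1 mM STP-alkyne probe for 1 h at ambient temperature.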
# CUL2 Cullin-2 = target: T2, CUL2 Cullin-2 (Homo sapiens, UniProt Q13617); details: for isoTOP-ABPP ratio (R) at liganded lysine Q13617_K489 / R value (DMSO/fragment) for probe 1 labeling / isoTOP-ABPP reactivity ratio at lysine Q13617_K489: 50 uM, in vitro; for isoTOP-ABPP ratio (R) at liganded lysine Q13617_K489: sol, 231; for R value (DMSO/fragment) for probe 1 labeling: Q13617_K489; for R value (DMSO/fragment) for probe 1 labeling / isoTOP-ABPP reactivity ratio at lysine Q13617_K489: 231 sol
# T2 construct: isoTOP-ABPP experiments performed in cell lysates (in vitro); endogenous in cells; host or cells: soluble proteome of human cancer cell lines (MDA-MB-231, Ramos, Jurkat)
# In short: as §1
# [2] = target: T3, GLOD4 Glyoxalase domain-containing protein 4 (Homo sapiens, UniProt Q9HC38); details: for isoTOP-ABPP ratio (R) at liganded lysine Q9HC38_K305 / R value (DMSO/fragment) for probe 1 labeling / isoTOP-ABPP reactivity ratio at lysine Q9HC38_K305: 50 uM, in vitro; for isoTOP-ABPP ratio (R) at liganded lysine Q9HC38_K305: sol, 231; for R value (DMSO/fragment) for probe 1 labeling: Q9HC38_K305; for R value (DMSO/fragment) for probe 1 labeling / isoTOP-ABPP reactivity ratio at lysine Q9HC38_K305: 231 sol
# T3 construct: endogenous in cells; host or cells: MDA-MB-231 (soluble fraction of lysate)
# T3 sequence (Q9HC38 1-313): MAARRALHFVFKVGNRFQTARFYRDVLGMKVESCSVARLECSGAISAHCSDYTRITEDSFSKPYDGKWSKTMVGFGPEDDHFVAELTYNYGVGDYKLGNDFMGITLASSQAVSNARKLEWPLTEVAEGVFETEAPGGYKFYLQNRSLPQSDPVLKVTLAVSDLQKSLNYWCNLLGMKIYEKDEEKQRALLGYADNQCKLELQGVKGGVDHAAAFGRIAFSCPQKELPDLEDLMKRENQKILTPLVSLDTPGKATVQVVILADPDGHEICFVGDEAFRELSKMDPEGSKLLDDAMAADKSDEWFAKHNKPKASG
# In short: as §1
# [3] = P17858_K677, 50 uM, 231 sol, in vitro
# [4] = P17858_K715, 50 uM, 231 sol, in vitro
# T2 sequence (Q13617 whole entry, the tested form may be a part): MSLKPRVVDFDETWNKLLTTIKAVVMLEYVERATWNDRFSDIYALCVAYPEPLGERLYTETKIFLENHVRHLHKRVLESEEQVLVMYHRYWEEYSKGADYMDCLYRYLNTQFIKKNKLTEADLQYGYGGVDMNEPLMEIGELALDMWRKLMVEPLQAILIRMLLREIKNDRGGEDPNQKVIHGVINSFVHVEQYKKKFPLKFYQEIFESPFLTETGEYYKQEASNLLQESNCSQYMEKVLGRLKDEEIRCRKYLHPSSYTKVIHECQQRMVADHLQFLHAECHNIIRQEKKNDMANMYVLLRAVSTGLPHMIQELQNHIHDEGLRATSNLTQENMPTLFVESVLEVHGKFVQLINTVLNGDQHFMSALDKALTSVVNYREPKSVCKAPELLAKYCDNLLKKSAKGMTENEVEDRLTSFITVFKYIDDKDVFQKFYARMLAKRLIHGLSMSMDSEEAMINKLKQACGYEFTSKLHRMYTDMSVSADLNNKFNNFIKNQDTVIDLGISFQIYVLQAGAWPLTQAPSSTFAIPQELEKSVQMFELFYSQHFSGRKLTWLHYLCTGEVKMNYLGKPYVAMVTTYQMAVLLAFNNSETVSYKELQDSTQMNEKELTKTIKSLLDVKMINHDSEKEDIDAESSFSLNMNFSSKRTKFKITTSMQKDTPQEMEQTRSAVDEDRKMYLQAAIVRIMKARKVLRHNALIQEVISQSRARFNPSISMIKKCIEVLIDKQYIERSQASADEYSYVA
compound,measurement,setting,value
"N#Cc1ccc(C(=O)Oc2ccc([N+](=O)[O-])cc2[N+](=O)[O-])cc1 [fragment 44, 2,4-Dinitrophenyl 4-cyanobenzoate]","isoTOP-ABPP ratio, lysine P17858_K315",[1]; 50 uM_231_sol_in vitro,0.8
same,"isoTOP-ABPP ratio, lysine P17858_K677",[1]; 50 uM_231_sol_in vitro,1.7
same,"isoTOP-ABPP ratio, lysine P17858_K715",[1]; 50 uM_231_sol_in vitro,1.8
same,"isoTOP-ABPP ratio, lysine Q13617_K489",CUL2 Cullin-2; 50 uM_231_sol_in vitro,0.8
same,"isoTOP-ABPP ratio, lysine Q9HC38_K305",[2]; 50 uM_231_sol_in vitro,0.5
"O=C(Oc1ccc([N+](=O)[O-])cc1[N+](=O)[O-])c1ccc(-c2ccccc2)cc1 [fragment 37, 2,4-Dinitrophenyl [1,1′-biphenyl]-4-carboxylate]",isoTOP-ABPP ratio (R) at liganded lysine P17858_K315,"[1]; 50 uM, in vitro",1.3
same,isoTOP-ABPP ratio (R) at liganded lysine P17858_K677,"[1]; 50 uM, in vitro",1.1
same,isoTOP-ABPP ratio (R) at liganded lysine P17858_K715,"[1]; 50 uM, in vitro",1.1
same,isoTOP-ABPP ratio (R) at liganded lysine Q13617_K489,CUL2 Cullin-2,1.0
same,isoTOP-ABPP ratio (R) at liganded lysine Q9HC38_K305,[2],0.6
"O=C(CCc1ccc2c(c1)OCO2)Oc1ccc([N+](=O)[O-])cc1[N+](=O)[O-] [fragment 45, 2,4-Dinitrophenyl 3-(benzo[d][1,3]dioxol-5-yl)propanoate]","isoTOP-ABPP ratio, lysine P17858_K315",[1]; 50 uM_231_sol_in vitro,1.8
same,"isoTOP-ABPP ratio, lysine P17858_K677",[1]; 50 uM_231_sol_in vitro,2.9
same,"isoTOP-ABPP ratio, lysine P17858_K715",[1]; 50 uM_231_sol_in vitro,10.9
same,"isoTOP-ABPP ratio, lysine Q13617_K489",CUL2 Cullin-2; 50 uM_231_sol_in vitro,1.2
same,"isoTOP-ABPP ratio, lysine Q9HC38_K305",[2]; 50 uM_231_sol_in vitro,0.7
"COC(=O)NC(=NC(=O)OCC1c2ccccc2-c2ccccc21)n1cccn1 [fragment 49, N-Methoxycarbonyl-N′-9-fluorenylmethoxycarbonyl-pyrazole-1-carboxamidine]","isoTOP-ABPP ratio, lysine P17858_K715",[1]; 100 uM_231_sol_in vitro,1.8
same,"isoTOP-ABPP ratio, lysine Q13617_K489",CUL2 Cullin-2; 100 uM_231_sol_in vitro,1.1
same,"isoTOP-ABPP ratio, lysine Q9HC38_K305",[2]; 100 uM_231_sol_in vitro,1.2
"O=C(Oc1c(F)c(F)c(F)c(F)c1F)C(c1ccccc1)c1ccccc1 [fragment 20, Pentafluorophenyl 2,2-diphenylacetate]",R value (DMSO/fragment) for probe 1 labeling,[1]; [3],18.8
same,R value (DMSO/fragment) for probe 1 labeling,[1]; [4],1.3
same,R value (DMSO/fragment) for probe 1 labeling,CUL2 Cullin-2,0.8
same,R value (DMSO/fragment) for probe 1 labeling,[2],0.8
"O=C(Oc1ccc([N+](=O)[O-])cc1[N+](=O)[O-])c1ccc2ccccc2n1 [fragment 35, 2,4-Dinitrophenyl quinoline-2-carboxylate]",isoTOP-ABPP ratio (R) at liganded lysine P17858_K677,"[1]; 50 uM, in vitro",1.5
same,isoTOP-ABPP ratio (R) at liganded lysine P17858_K715,"[1]; 50 uM, in vitro",1.3
same,isoTOP-ABPP ratio (R) at liganded lysine Q13617_K489,CUL2 Cullin-2,0.9
same,isoTOP-ABPP ratio (R) at liganded lysine Q9HC38_K305,[2],0.4
"CCn1cc(C(=O)Oc2c(F)c(F)c(F)c(F)c2F)c(=O)c2ccc(C)nc21 [fragment 28, Pentafluorophenyl 1-ethyl-7-methyl-4-oxo-1,4-dihydro-1,8-naphthyridine-3-carboxylate]",isoTOP-ABPP reactivity ratio at lysine P17858_K677,"[1]; 50 uM, 231 sol, in vitro",1.1
same,isoTOP-ABPP reactivity ratio at lysine P17858_K715,"[1]; 50 uM, 231 sol, in vitro",1.5
same,isoTOP-ABPP reactivity ratio at lysine Q13617_K489,CUL2 Cullin-2,1.0
same,isoTOP-ABPP reactivity ratio at lysine Q9HC38_K305,[2],1.0
"O=C(Oc1c(F)c(F)c(F)c(F)c1F)c1cc(C(F)(F)F)cc(C(F)(F)F)c1 [fragment 21, Pentafluorophenyl 3,5-bis(trifluoromethyl)benzoate]",R value (DMSO/fragment) for probe 1 labeling,[1]; [3],0.9
same,R value (DMSO/fragment) for probe 1 labeling,[1]; [4],0.9
same,R value (DMSO/fragment) for probe 1 labeling,CUL2 Cullin-2,0.9
same,R value (DMSO/fragment) for probe 1 labeling,[2],0.8
"CC(C)(C)OC(=O)NCCCC(=O)Oc1ccc([N+](=O)[O-])cc1[N+](=O)[O-] [fragment 41, 2,4-Dinitrophenyl 4-((tert-butoxycarbonyl)amino)butanoate]",isoTOP-ABPP ratio (R) at liganded lysine P17858_K315,"[1]; 50 uM, in vitro",2.3
same,isoTOP-ABPP ratio (R) at liganded lysine P17858_K677,"[1]; 50 uM, in vitro",5.6
same,isoTOP-ABPP ratio (R) at liganded lysine P17858_K715,"[1]; 50 uM, in vitro",2.0
same,isoTOP-ABPP ratio (R) at liganded lysine Q13617_K489,CUL2 Cullin-2,1.0
same,isoTOP-ABPP ratio (R) at liganded lysine Q9HC38_K305,[2],20.0
"O=C(Oc1c(F)c(F)c(F)c(F)c1F)C1CCN(C(=O)OCc2ccccc2)CC1 [fragment 24, 1-Benzyl 4-(pentafluorophenyl) piperidine-1,4-dicarboxylate]",isoTOP-ABPP reactivity ratio at lysine P17858_K315,"[1]; 50 uM, 231 sol, in vitro",0.9
same,isoTOP-ABPP reactivity ratio at lysine P17858_K677,"[1]; 50 uM, 231 sol, in vitro",3.3
same,isoTOP-ABPP reactivity ratio at lysine P17858_K715,"[1]; 50 uM, 231 sol, in vitro",0.9
same,isoTOP-ABPP reactivity ratio at lysine Q13617_K489,CUL2 Cullin-2,0.9
same,isoTOP-ABPP reactivity ratio at lysine Q9HC38_K305,[2],1.5
